Data reported in US20030059338A1, “Methods for sterilizing biological materials using flavonoid/flavonol stabilizers” (priority 2001, published 2003).

What was measured:
[1] = tested on: thrombin; experiment: Thrombin clotting activity (chromagenic) of lyophilized thrombin after gamma irradiation with stabilizer (Example 3); type: biochemical; conditions: lyophilized thrombin + 10% BSA, 48.5-51.2 kGy at 1.846-1.949 kGy/hr, 4° C.; epicatechin 200 mM, purpurogallin 1M, biacalein 50 mM
Method: Samples of thrombin (100 NIH units, 1 ml), alone or in the presence of epicatechin (200 mM) or purpurogallin (1M, Aldrich) or biacalein (50 mM; Aldrich), and 10% bovine serum albumin, were prepared and lyophilized. Lyophilized samples were gamma irradiated to 48.5-51.2 kGy at a dose rate of 1.846-1.949 kGy/hr at 4° C. All samples were then assayed for clotting activity by conventional chromagenic methodology.

[2] = tested on: anti-insulin monoclonal immunoglobulin; experiment: ELISA activity of freeze-dried anti-insulin monoclonal immunoglobulin after gamma irradiation with stabilizer (Example 1); type: binding; conditions: freeze-dried anti-insulin mAb + 1% BSA, irradiated to 45 kGy at 1.83 kGy/hr, 4° C.; diosmin 39.3 mM or silymarin 246 mM
Method: Samples were prepared by combining anti-insulin monoclonal antibody ([…] of 2 mg/ml solution) and either diosmin (39.3 mM; Sigma cat# D3525 lot 125H0831) or silymarin (246 mM; Aldrich cat #24592-4) in 3 ml glass vials with 13 mm stoppers. Samples were freeze-dried for approximately 64 hours and stoppered under vacuum and sealed with an aluminum, crimped seal. Samples were irradiated at a dose rate of 1.83 kGy/hr to a total dose of 45 kGy at 4° C. Monoclonal immunoglobulin activity was determined by a standard ELISA protocol. Maxisorp plates were coated with human recombinant insulin at […] overnight at 4° C. The plate was blocked with […] of blocking buffer (PBS, pH 7.4, 2% BSA) for two hours at 37° C. and then washed six times with wash buffer (TBS, pH 7, 0.05% TWEEN 20). Samples were re-suspended in […] of high purity water (100 ng/ml), diluted to 5 Fg/ml in a 300 Fl U-bottomed plate coated for either overnight or two hours with blocking buffer. Serial 3-fold dilutions were performed, with a final concentration of […]. Plates were incubated for one hour at 37° C. with agitation and then washed six times with a wash buffer. Phosphatase-labelled goat anti-mouse IgG (H+L) was diluted to 50 ng/ml in binding buffer and […] was added to each well. […] The plate was read on a Multiskan MCC/340 at 405 nm with the background absorbance at 620 nm subtracted.

O=c1cc(-c2ccccc2)oc2cc(O)c(O)c(O)c12 [biacalein]
thrombin activity retained following gamma irradiation [1]: about 57%

COc1ccc(-c2cc(=O)c3c(O)cc(O[C@@H]4O[C@H](CO[C@@H]5O[C@@H](C)[C@H](O)[C@@H](O)[C@H]5O)[C@@H](O)[C@H](O)[C@H]4O)cc3o2)cc1O [diosmin]
recovery of activity [2]: ~62%

O=c1c(O)cccc2cc(O)c(O)c(O)c12 [purpurogallin]
thrombin activity retained following gamma irradiation [1]: over 90%
